Target: Transmembrane protease serine 2 (Homo sapiens, UniProt O15393)
Experiment: titration assay
Excerpt: To identify inhibitors of TMPRSS2 that may be used directly in clinical studies or as lead compounds to develop targeted drugs, we screened several chemical libraries with active TMPRSS2 protease, the […] TMPRSS2 peptide substrate Boc-Gln-Ala-Arg-MCA, and compound concentrations of 5 μmol/L. We have used a similar approach to identify inhibitors of the hepsin protease.

Chain of Transmembrane protease serine 2 (O15393 1-255 limits assumed): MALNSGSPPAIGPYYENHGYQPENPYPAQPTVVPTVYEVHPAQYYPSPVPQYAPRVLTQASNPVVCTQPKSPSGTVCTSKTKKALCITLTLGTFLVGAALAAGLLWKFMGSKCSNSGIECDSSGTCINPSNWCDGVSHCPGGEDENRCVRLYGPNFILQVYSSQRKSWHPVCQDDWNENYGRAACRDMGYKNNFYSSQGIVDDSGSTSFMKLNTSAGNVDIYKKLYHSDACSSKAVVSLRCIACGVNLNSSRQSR
Chain of Transmembrane protease serine 2 (O15393 256-492 limits assumed): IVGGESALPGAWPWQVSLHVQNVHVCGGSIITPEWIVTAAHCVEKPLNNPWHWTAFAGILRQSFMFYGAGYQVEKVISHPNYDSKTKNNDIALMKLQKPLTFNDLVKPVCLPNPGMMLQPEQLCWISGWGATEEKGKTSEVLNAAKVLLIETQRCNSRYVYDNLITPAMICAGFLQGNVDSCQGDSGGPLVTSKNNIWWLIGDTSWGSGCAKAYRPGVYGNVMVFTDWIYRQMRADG

Row | Compound | IC50 [nM]
1 | COC(=O)Cc1cc(=O)oc2cc(O)ccc12 | 1370
2 | COC(=O)c1ccc(OC(=O)c2cccs2)cc1 [0591-5329] | 930
3 | CCN1CCn2c3c(c4cc(Br)ccc42)CCCC31 (stereo not given) [4401-0077] | 2680

Second part, the compound after the results:

Row | IC50 [nM] | Compound
4 | 2640 | CCn1c(-c2ccc(Cl)cc2)csc1=Nc1ccccc1 [8008-1235]
5 | 750 | CN(Cc1cc(Br)cc(Br)c1N)C1CCCCC1 [Bromhexine]

Source: BindingDB's records for doi:10.1158/2159-8290.CD-13-1010 (Fred Hutchinson Cancer Research Center, 2014)
